“And” between values parts separate entries of the source, which are not always exact repeats. Identical values can stand only once.
What was measured:
Assay type in all cases: cell-based
[1] = tested on: pcDNA 3.0-Axl brain CSCs ^CD133+; experiment: Wound healing assay with pcDNA 3.0-Axl brain CSCs CD133+ (Axl overexpression); conditions: BP 0, 25, 50, 62.5, 75 and 100 µg/ml for 24 hours, compared to pcDNA3.0-neo cells, Figure 14C
Experimental: In this research, to further investigate whether the capability of BP in inhibiting the metastasis of cancer stem cells is related to Axl, brain CSCs ^CD133+ was transfected with pcDNA3.0-Axl plasmid and pcDNA3.0-neo plasmid respectively by using Lipofectmine 2000 transfection reagent. Then, the transfected brain CSCs ^CD133+ and un-transfected brain CSCs ^CD133+ were selected by 200 to 600 µg/ml G418 at the same time to obtain brain CSCs ^CD133+ having pcDNA3.0-Axl plasmid (hereinafter referred to as "pcDNA 3.0-Axl brain CSCs ^CD133+") or brain CSCs ^CD133+ having pcDNA3.0-neo plasmid (hereinafter referred to as "pcDNA3.0-neo brain CSCs ^CD133+"). Both pcDNA 3.0-Axl brain CSCs ^CD133+ and pcDNA3.0-neo brain CSCs ^CD133+ were observed and photographed with the use of a microscope. Then, proteins were extracted from both cells to conduct Western blotting to determine the expressions of Axl protein and β-actin in the BP-treated brain CSCs ^CD133+. Yet another, pcDNA 3.0-Axl brain CSCs ^CD133+ and pcDNA3.0-neo brain CSCs ^CD133+ were treated with different concentrations (0, 25, 50, 62.5, 75 and 100 µg/ml) of BP for 24 hours. At the same time, the phenomenon of pcDNA 3.0-Axl brain CSCs ^CD133+ and pcDNA3.0-neo brain CSCs ^CD133+ migrate to the wound was observed and photographed at 0 and 24 hours during the BP treatment.

[2] = tested on: NHOKs (normal human oral keratinocytes); experiment: MTT viability assay on normal human oral keratinocytes; conditions: BP 0, 25, 50 and 100 µg/ml for 24 hours; Figure 2
Experimental: (§1) NHOKs (normal human oral keratinocytes) and HNC-TIC (head and neck cancer-derived tumor initiating cell)-like oral stem cells (i.e., ALDH1^+CD44^+-1 cell line or ALDH1^+CD44^+-2 cell line) were treated with different concentrations (0, 25, 50 and 100 µg/ml) of BP for 24 hours, and then, an MTT assay was utilized to analyzed the viabilities of NHOKs and HNC-TIC-like oral stem cells (i.e., ALDH1^+CD44^+-1 cell line and ALDH1^+CD44^+-2 cell line).

brain CSCs ^CD133+ [3] = experiment: MTT cell viability assay on brain CSCs CD133+
Source text: Thereafter, a cell viability assay, MTT assay, was utilized to analyze the viabilities of brain CSCs ^CD133+ and malignant glioma DBTRG cells. […]

[4] = tested on: HNC-TIC-like oral stem cells (ALDH1^+CD44^+-1 cell line or ALDH1^+CD44^+-2 cell line); experiment: Transwell invasion assay with HNC-TIC-like oral stem cells; conditions: BP 0, 25 and 50 µg/ml for 24 hours
Source text: In this research, the effect of BP on inhibiting the migration and invasion of cancer stem cells was further investigated by a transwell invasion assay system (i.e., Transwell^○,R system, purchased from Corning, UK) with a polycarbonate filter membrane of 8-µm pore size (purchased from Coming, UK). First, the polycarbonate filter membrane was coated with Matrigel™ (purchased from BD Pharmingen, USA), and then, the coated membrane was placed in the lower chamber of the transwell invasion assay system. Then, the lower chamber was filled with 10% serum-containing medium. On the other hand, HNC-TIC-like oral stem cells (i.e., ALDH1^+CD44^+-1 cell line or ALDH1^+CD44^+-2 cell line) were treated with different concentrations (0, 25 and 50 µg/ml) of BP for 24 hours, and then, the treated cells of each group was cultured in the upper chamber which was filled with serum-free medium, at a cell density of 1×10^5 cells/100 µl for 24 hours. […] The invasion cancer cells of each group were counted and photographed over five visual fields of the membrane with the use of a 100-fold magnification under a microscope. The relative invasion ability of cells of each experimental group was calculated based on the result of the group treated with 0 µg/ml of BP.

EZH2 = experiment: Western blotting of EZH2 protein in brain CSCs CD133+; conditions: BP 0, 12.5, 25, 50, 62.5 and 75 µg/ml; Figure 3
Experimental: It has been known that EZH2 (enhancer of zeste homolog 2) gene is a critical growth related factor of cancer stem cells, and it will affect the growth and growth characteristics of cancer stem cells. Brain CSCs ^CD133+ was treated with different concentrations (0, 12.5, 25, 50, 62.5 and 75 µg/ml) of BP, and then, proteins were extracted from the cells to conduct Western blotting to determine the expression of EZH2 protein in the BP-treated brain CSCs ^CD133+.

ALDH = experiment: ALDEFLUOR flow cytometry analysis of ALDH activity in HNC-TIC-like oral stem cells; conditions: group without DEAB addition; BP 0, 25 and 50 µg/ml for 24 hours; Figure 8
Experimental: ALDH protein is also an important stemness-maintenance marker of cancer stem cells and participates in the regulation of the self-renewal and differentiation of cancer stem cells. HNC-TIC-like oral stem cells (i.e., ALDH1^+CD44^+-1 cell line or ALDH1^+CD44^+-2 cell line) were treated with different concentrations (0, 25 and 50 µg/ml) of BP for 24 hours, and then, 1 ×10^5 cells obtained from each group were separately suspended in 50 µl of a stem cell detection kit (i.e., ALDEFLUOR array kit, purchased from […] Technologies Inc., Vancouver, Canada) buffer and the cell suspension of each group was separately added with ALDEFLUOR to a final concentration of 1 µM. Thereafter, a sample of each group was stained by […] and then analyzed by flow cytometry analysis to determine the ALDH activity of HNC-TIC-like oral stem cells (i.e., ALDH1^+CD44^+-1 cell line and ALDH1^+CD44^+-2 cell line).
The above experimental procedure was repeated, but the cell suspension of each group was further added with N,N-diethylaminobenzaldehyde (DEAB, i.e., an inhibitor of ALDH) to a final concentration of 150 µM of DEAB separately.

brain CSCs ^CD133+ [5] = experiment: Wound healing assay with brain CSCs CD133+; conditions: BP 0-75 µg/ml or BCNU 0-400 µM for 24 hours; Figure 13
Source text: In this research, a wound healing assay was used to further investigate the effect of BP on inhibiting the metastasis of cancer stem cells.

[6] = tested on: HNC-TIC-like oral stem cells (ALDH1^+CD44^+-1 cell line, ALDH1^+CD44^+-2 cell line); experiment: MTT viability assay on HNC-TIC-like oral stem cells; conditions: BP 0, 25, 50 and 100 µg/ml for 24 hours; both cell lines; Figure 2
Experimental: as §1

## CCCC=C1OC(=O)c2ccccc21 [BP, butylidenephthalide]
[1]
  suppression of the number of pcDNA 3.0-Axl brain CSCs ^CD133+ migrated to the wound: not quite significant
[2]
  viability of NHOKs: did not decrease
Brain CSCs ^CD133+ [3]; 24-hour group and 48-hour group, BP 0-100 µg/ml, BCNU 0-1000 µM, Figure 1A, 1B
  viability of brain CSCs ^CD133+: significantly decreased
Brain CSCs ^CD133+ [3]; 24 h, read-out: IC50 to brain CSCs ^CD133+
  IC50: 406 µM and 76.5 µg/mL
[4]; Figure 11A
  number of cells on the polycarbonate filter membrane: significantly reduced
[4]; relative to 0 µg/ml group, Figure 11B
  relative invasion ability of cancer stem cells: decreased along with the increment in the concentration of BP
EZH2
  expression of EZH2 protein in brain CSCs ^CD133+: significantly decreased
ALDH
  number of live cells with ALDH activity: increased along with the increment in the concentration of BP
Brain CSCs ^CD133+ [5]
  number of brain CSCs ^CD133+ migrated to the wound: significantly decreased
[6]
  viability of HNC-TIC-like oral stem cells: decreased along with the increment in the concentration of BP
